Measurements published in patent US11419913B2, “Pharmaceutical compositions for inhibiting inflammatory cytokines” (S.I.S. SHULOV INNOVATIVE SCIENCE LTD., priority 2018, dated 2022).
Where a SMILES comes first, the peptide text is derived from it. [ ]: non-standard residue; d: D form. The star is where a group is joined. pGlu = O=C1CC[C@@H](C(=O)O)N1; Octanoyl = CCCCCCCC(=O)*

Assays:
[1] = test system: TNF alpha; assay: ZEP3 pretreatment, expression of TNF alpha by LPS treated macrophages; format: cell-based, mouse; conditions: ZEP3 50 μg/mL 1 hour before LPS 100 ng/mL
Method: Macrophages originating from C57BL/6 mice were cultured at a density of 200,000 cells/mL in a 24-well plate (500 μl wells) and placed in a 37° C., 5% CO2 Incubator overnight. Following the overnight incubation media were replaced with fresh media containing 50 μg/ml ZEP3. Following 1-hour incubation 100 ng/mL LPS was added to the appropriate wells, the plates were incubated for additional 24 hours, then the amount of TNF alpha in each well was measured.

[2] = test system: Reactive Oxygen Species (ROS); assay: ROS production in corneal epithelial cell culture dry eye disease model; format: cell-based, human
Method: The anti-inflammatory effect of the peptides in experimental corneal inflammation was tested in a cell culture model using various inflammasome inducers such as LPS, 4-HNE, Nigericin and others to model a dry-eye-disease (DED). Using a dose-response model, human primary corneal epithelial cells were pre-treated with the peptides followed by exposure to DED inducers. Expression of IL-6 was measured as well as cell viability, ROS production.
Human primary Corneal Epithelial Cells (PCS-700-010; HCECs) were treated with ZEP3 at concentrations ranging from 3 to 12 μg/ml for 2 hours then exposed to LPS, 4-HNE or Nigericin for 24 hours. Following incubation, the levels of the pro-inflammatory cytokine IL-6, cell viability and reactive oxygen species (ROS) production in the cell cultures were measured.

SMILES: CCCCCCCC(=O)NCCCC[C@H](NC(=O)[C@H](Cc1c[nH]c2ccccc12)NC(=O)[C@H](CC(N)=O)NC(=O)[C@@H]1CCC(=O)N1)C(=O)O [ZEP3, pGlu-Asn-Trp-Lys(Octanoyl)-OH] ([pGlu]NWK(Octanoyl)-OH)
- TNF alpha ([1]; 24 hours): 101.2 pg/mL
- % reduction of TNF alpha ([1]; vs LPS control): 46.7%
- level of ROS in cell culture ([2]; HCECs pre-treated with ZEP3, exposed to 4-HNE for 24 hours, DCFDA kit (FIG. 8)): 13000±800 RFU
- reduction of ROS level ([2]; ZEP3 treated vs untreated cell culture, 4-HNE 24 hours (FIG. 8)): 51.9%
